Experimental data reported in PubChem BioAssay AID1996.
Converted amounts (≈) assume the structure as drawn.

Conditions: buffer; pH 7.4; 200.0 µM

Compound	solubility kinetic
COCCN(C(=S)Nc1ccccc1C)C(C)c1ccco1 (centres undefined)	45.7 µg/mL (≈ 144 µM)
Cc1nc(SCC(=O)Nc2ccccc2Cl)c2c(C)c(C)sc2n1	3.9 µg/mL (≈ 10.3 µM)
Cc1cccc(C(=O)OCC(=O)Nc2ccc3c(c2)OCCO3)c1	8.2 µg/mL (≈ 25.1 µM)
C[C@@H](C(=O)OCC(=O)c1ccccc1)N1C(=O)C2CCCCC2C1=O (some centres undefined)	> 51.5 µg/mL
Nc1ccc(CCNc2ncnc3c2ncn3[C@@H]2O[C@H](CO)[C@@H](O)[C@H]2O)cc1	> 58 µg/mL
CN1CCC(N(C)C(=O)c2cc(S(=O)(=O)N(C)c3ccccc3)ccc2Cl)CC1.Cl	> 70.9 µg/mL
CCNC(=S)Nc1ccc(NC(=O)c2ccccc2O)cc1	21.9 µg/mL (≈ 69.4 µM)
COc1ccc(CC(=O)NC2CCCCCC2)c(OC)c1	37.6 µg/mL (≈ 129 µM)
O=C1Nc2ccccc2C1Cc1ccc(OC(F)(F)F)cc1 (centres undefined)	37.3 µg/mL (≈ 121 µM)
Cc1nc2c(c(=O)c3ccccc3n2C)c(=O)n1-c1ccc(F)cc1	13.7 µg/mL (≈ 40.9 µM)
CC(C)(C)SCCNC(=O)/C=C/c1ccccc1	33.9 µg/mL (≈ 129 µM)
COc1ccc(S(=O)(=O)N2CCN(c3ccccn3)CC2)cc1[N+](=O)[O-]	5.8 µg/mL (≈ 15.3 µM)
O=C(O)COCC(=O)NCc1csc2ccc(Cl)cc12	> 47.1 µg/mL
Cc1cccc(C)c1OCC(=O)NC1CC1	> 32.9 µg/mL
COc1cc(/C=C/C(=O)N(C)CC(=O)Nc2ccccc2SC)cc(OC)c1OC	> 64.6 µg/mL
O=S(=O)(c1cc(F)ccc1F)N1CCN2CCCC2C1 (centres undefined)	> 45.4 µg/mL
Cc1onc(-c2c(Cl)cccc2Cl)c1C(=O)c1ccc(F)cc1	< 0.7 µg/mL
CNC(=O)NC(=O)Cn1cnc2sc(-c3ccccc3)cc2c1=O	0.4 µg/mL (≈ 1.17 µM)
CC(C)(C)c1cc(NC(=O)Nc2ccc(Cl)cc2Cl)no1	< 0.2 µg/mL
O=Cc1c(N2CCC3(CC2)OCCO3)nc2ccccn2c1=O	> 47.3 µg/mL
CCN(CC)C(=O)CSc1nnc([C@@H](N)C(C)C)o1.Cl	> 48.4 µg/mL
O=C(NCCCNC(=O)c1ccco1)c1ccc(F)cc1	42.7 µg/mL (≈ 147 µM)
COc1ccc(N2CC(C(=O)NC3CCCCC3)CC2=O)cc1 (centres undefined)	25.3 µg/mL (≈ 80 µM)
Cc1ccc(C)c(OCCC(=O)OCC(=O)NC2CCCC2)c1	43.5 µg/mL (≈ 136 µM)

Compound	solubility kinetic
Cc1ccccc1OCC(=O)OCC(=O)NCc1ccccc1	> 47 µg/mL
O=C(CSc1ccc(C(F)(F)F)cc1[N+](=O)[O-])N1CCOCC1	22.9 µg/mL (≈ 65.4 µM)
CCC(=O)c1cn(CC(=O)Nc2ccccc2F)c2ccccc12	3.2 µg/mL (≈ 9.87 µM)
Cc1cc2ncn(CS(C)(=O)=O)c2cc1C	34.3 µg/mL (≈ 144 µM)
Cc1csc2c(=O)sc(NC(=O)c3ccco3)nc12	4.5 µg/mL (≈ 15.4 µM)
Cc1ccnc(N2C(=O)c3ccccc3C2=O)c1	> 35.7 µg/mL
COCc1cc(C)nc(Nc2ccccc2OC)c1C#N	0.3 µg/mL (≈ 1.06 µM)
NC(=O)CCC(NC(=S)Nc1ccccc1)C(=O)O (centres undefined)	39.3 µg/mL (≈ 140 µM)
CC1CC(C)CN(C(=O)COC(=O)c2c[nH]c3ccccc23)C1 (centres undefined)	12.7 µg/mL (≈ 40.4 µM)
CCNC(=S)Nc1ccc2c(c1)oc1ccccc12	1.7 µg/mL (≈ 6.29 µM)
C#CC(C)OC(=O)Nc1cnccc1C(F)(F)F (centres undefined)	36 µg/mL (≈ 139 µM)
O=C(Nc1ccncc1)Nc1cccc(Cl)c1Cl	24.1 µg/mL (≈ 85.4 µM)
O=C(COC(=O)Cn1cnc2ccccc21)Nc1ccc(F)c(F)c1	> 51.8 µg/mL
CC1CCCCN1C(=O)c1cc(-c2ccc3c(c2)OCO3)on1 (centres undefined)	39.9 µg/mL (≈ 127 µM)
CC(C)c1onc(C(=O)Nc2ccc3c(c2)OCO3)c1[N+](=O)[O-]	> 47.9 µg/mL
COc1ccc(C(=O)N/C(=C\c2ccc(SC)cc2)C(=O)NCCCn2ccnc2)cc1OC	12.3 µg/mL (≈ 25.6 µM)
O=C(C1CCCC1)N1CCN(S(=O)(=O)c2cccc(Cl)c2Cl)CC1	27.4 µg/mL (≈ 70 µM)
COc1ccc(Cl)cc1C(=O)Nc1cccnc1	22.1 µg/mL (≈ 84.1 µM)
O=C1C2CCCN2C(=O)N1CCCN1CCN(c2ccc([N+](=O)[O-])cc2)CC1 (centres undefined)	49.4 µg/mL (≈ 128 µM)
Cc1ccccc1N1C(=O)c2cccc([N+](=O)[O-])c2C1=O	> 42.3 µg/mL
CC(C)(C)NC(=O)NC(=O)COC(=O)c1cc[n+]([O-])cc1	> 44.3 µg/mL
CC(=O)Cn1cnc2scc(-c3ccc(C)c(C)c3)c2c1=O	43.7 µg/mL (≈ 140 µM)
O=C(CCNC(=O)c1ccccc1Cl)Nc1ccncc1	44.3 µg/mL (≈ 146 µM)
O=C(Nc1ccon1)Nc1ccc(Cl)cc1Cl	1.6 µg/mL (≈ 5.88 µM)

Compound	solubility kinetic
COc1ccc(Cl)cc1NC(=O)C(OC)c1ccccc1 (centres undefined)	3.9 µg/mL (≈ 12.8 µM)
CCOc1ncccc1C(=O)N=c1sccn1C	> 39.5 µg/mL
O=C(NC(O)C(=O)c1ccccc1)c1ccc(F)cc1 (centres undefined)	39.7 µg/mL (≈ 145 µM)
CC(=O)c1cccc(NC(=O)NCc2ccc3c(c2)OCO3)c1	9.2 µg/mL (≈ 29.5 µM)
CCOC(=O)c1oc2nc3c(cc2c1N)CCCC3	10.4 µg/mL (≈ 40 µM)
CC(C)c1ccc2oc(=O)cc(CN3CCOCC3)c2c1	41.9 µg/mL (≈ 146 µM)
CC(C)CNS(=O)(=O)c1cc2c3c(c1)CCC(=O)N3CCC2	> 48.4 µg/mL
O=C(CCN1C(=O)C2C3CCC(C3)C2C1=O)Nc1ccc(F)cc1 (centres undefined)	36.8 µg/mL (≈ 111 µM)
COc1ccc(S(=O)(=O)N2CCCCC2)cc1NC(=O)c1[nH]c(C)c(C(C)=O)c1C	3.2 µg/mL (≈ 7.38 µM)
CCN(CC)S(=O)(=O)c1ccc(/C=C/C(=O)OCC(=O)NCc2ccco2)cc1	17.3 µg/mL (≈ 41.1 µM)
COC(=O)c1ccc(C2NC(=O)c3c(sc(C)c3C)N2)cc1 (centres undefined)	14.5 µg/mL (≈ 45.8 µM)
O=C(COc1ccccc1[N+](=O)[O-])Nc1cc(Cl)ccc1C(=O)O	> 52.6 µg/mL
COc1ccc(/C(C)=N/NC(=O)CNC(=O)c2ccco2)cc1	> 47.3 µg/mL
Cc1onc(NC(=O)NC(=O)c2c(F)cccc2Cl)c1Br	8.1 µg/mL (≈ 21.5 µM)
CC(=O)Nc1ccc(C(=O)Nc2cc(C)on2)cc1	> 38.9 µg/mL
COc1ccc(Cl)cc1NC(=S)NCCc1ccc(F)cc1	13.7 µg/mL (≈ 40.4 µM)
CCN(CC)c1ccc(CNCCc2ccccc2F)cc1.Cl	> 50.5 µg/mL
Cc1ccc(CNC(=O)CSCc2ccccc2)cc1	19.7 µg/mL (≈ 69 µM)
COc1ccc(CC(CC(=O)O)C(=O)NCc2ccccc2)cc1 (centres undefined)	48.6 µg/mL (≈ 148 µM)
CC(=O)c1sc(Nc2nc3cc4c(cc3s2)OCO4)nc1C	0.6 µg/mL (≈ 1.8 µM)
CN1CCN(c2ccc(Cl)cc2NC(=O)/C=C/c2ccc(F)cc2)CC1	38.4 µg/mL (≈ 103 µM)
COc1ccc(C(=O)NC(=S)SCC(=O)O)cc1	> 42.8 µg/mL
O=C(COC(=O)/C=C/c1ccccc1Cl)Nc1cccnc1Cl	2.9 µg/mL (≈ 8.26 µM)
Cc1cc(OCC(=O)NCCc2c[nH]c3ccccc23)c2c(C)cc(=O)oc2c1	< 0.4 µg/mL

Compound	solubility kinetic
Cc1ccc(Cl)cc1NC(=O)COc1ccccc1	1.9 µg/mL (≈ 6.89 µM)
Cc1ccccc1-c1nnc(SCC(=O)Nc2cccnc2Cl)o1	> 54.1 µg/mL
CC(=O)NCCc1nc2ccccc2n1CCOc1ccc(C)cc1	> 50.6 µg/mL
O=C(CSc1ccc(-c2ccc(F)cc2)nn1)NCC1CCCO1 (centres undefined)	> 52.1 µg/mL
Cc1ccc(C)c(NC(=O)C[n+]2ccccc2)c1.[Cl-]	40.8 µg/mL
COC(=O)Cn1c2ccccc2c2nc3ccccc3nc21	0.2 µg/mL (≈ 0.687 µM)
O=C1NC2(CCCCC2)N(C(=O)c2ccccc2)C2=C1CCCC2	8.1 µg/mL (≈ 25 µM)
COc1ccccc1CC(=O)Nc1ccc2c(C)cc(=O)oc2c1	3.6 µg/mL (≈ 11.1 µM)
CC(C)COc1ccc(Br)cc1CNC(C)(C)C.Cl	50.7 µg/mL
CCN(CC)c1ccc(C(=O)OCC(=O)N2CCCC2)cc1	> 45.7 µg/mL
O=C(Oc1coc(CSc2ncccn2)cc1=O)c1ccco1	46.5 µg/mL (≈ 141 µM)
Cl.c1cncc(CNC2CCCCC2)c1	> 34 µg/mL
COc1ccc(C)cc1S(=O)(=O)NCCN1CCOCC1	> 47.2 µg/mL
O=c1[nH]cnc2sc3c(c12)CN(Cc1ccccc1)CC3	21.3 µg/mL (≈ 71.6 µM)
CCc1ccccc1NC(=O)Nc1ccon1	29.1 µg/mL (≈ 126 µM)
O=C(NNC(=O)C1CCN(c2ncccn2)CC1)c1ccncc1	> 49 µg/mL
COc1ccc(Cl)cc1C(=O)OCC(=O)Nc1sccc1C(N)=O	6.6 µg/mL (≈ 17.9 µM)
Cc1ccc(C2NC(=S)NC3=C2C(=O)CCC3)cc1 (centres undefined)	9 µg/mL (≈ 33 µM)
CC12CN3CC(C)(CN(C1)C3c1ccc(Cl)cc1)C2 (centres undefined)	30.9 µg/mL (≈ 112 µM)
NC(=O)CSc1nccn1Cc1ccccc1	> 37.1 µg/mL
O=C(OCC(=O)c1ccccc1)C1=NN(c2ccccc2)C(=O)CC1	> 50.5 µg/mL
CCOc1ccc(CC(=O)Nc2nccs2)cc1	7.7 µg/mL (≈ 29.4 µM)
O=[N+]([O-])c1ccc(N2CCN(Cc3ccncc3)CC2)cc1	35.3 µg/mL (≈ 118 µM)
Cc1ccc(S(=O)(=O)N2CCC(C(=O)Nc3cccnc3)CC2)cc1	> 53.9 µg/mL

Compound	solubility kinetic
COc1ccc(Cl)cc1C(=O)n1cnc2ccccc21	> 43 µg/mL
Cc1c(C(=O)N2C[C@@H](C)O[C@@H](C)C2)oc2c(F)cccc12	> 43.7 µg/mL
Nc1ccccc1SCC(O)Cn1ccc2ccccc21 (centres undefined)	> 44.8 µg/mL
COc1cc(NC(=S)Nc2ccc3c(c2)OCCO3)cc(OC)c1OC	> 56.5 µg/mL
COc1ccc(/C=C/C(=O)O)cc1S(=O)(=O)N1CCC(Cc2ccccc2)CC1	61.6 µg/mL (≈ 148 µM)
O=[N+]([O-])c1ccccc1Nc1c2ccccc2nc2ccccc12	< 0.2 µg/mL
O=C(NCCCN1CCCC1=O)Nc1ccc(Cl)cc1Cl	> 49.5 µg/mL
NS(=O)(=O)c1ccc(NC(=O)CN2CCCc3ccccc32)cc1	19.1 µg/mL (≈ 55.3 µM)
Cc1ccc2c(=O)c(CN3CCCCCC3)c(C)[nH]c2c1C	40.6 µg/mL (≈ 136 µM)
O=C1C(c2ccccc2)NC(=S)N1C1CCCCC1 (centres undefined)	2.4 µg/mL (≈ 8.75 µM)
NC(=O)C1CCN(C(=O)/C=C/c2cccc(Br)c2)CC1	46.9 µg/mL (≈ 139 µM)
COc1cccc(NC(=O)C(c2ccccc2)N2CCNC(=O)C2)c1 (centres undefined)	> 50.9 µg/mL
NC1=NC2(CCCC2)N=C(Nc2ccccc2)N1	> 36.5 µg/mL
O=C(/N=C1\NC(=O)C(F)(C(F)(F)F)S1)NC1CCCCC1 (centres undefined)	> 49.1 µg/mL
CC(C)N1C(=O)C2(OCCCO2)c2cc(Br)ccc21	46.9 µg/mL (≈ 144 µM)
Cc1cccc(NS(=O)(=O)c2ccc3c(c2)NC(=O)CC(=O)N3)c1	> 51.8 µg/mL
CC(C)c1cc(=O)n2c(nc3ccccc32)[nH]1	> 34.1 µg/mL
CCOC(=O)C1CCN(C(=O)c2ccc(C)o2)CC1	> 39.8 µg/mL
COc1ccccc1NC(=O)COc1ccc2ccccc2c1	2.5 µg/mL (≈ 8.13 µM)
COC(=O)C1=C(C)NC(=O)NC1c1c(O)ccc2ccccc12 (centres undefined)	15.2 µg/mL (≈ 48.7 µM)
CN(C)/C=C/C(=O)c1cnc(-c2ccccn2)s1	> 38.9 µg/mL
Cc1ccc(NC(=S)Nc2cccc3cnccc23)cc1	30 µg/mL (≈ 102 µM)
O=C(NC(=O)N1CCCCCC1)c1ccc(Cl)cc1	> 42.1 µg/mL
